“And” between values parts separate entries of the source, which are not always exact repeats. Identical values can stand only once.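 How tested: cells in 96-well plates exposed to compound for 48 hours at five concentrations. GI50 marks 50% less growth. TGI marks complete inhibition of growth.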
Legend:
Test in all cases: NCI anticancer screen, dose series, 48 h
[1] = system: CCRF-CEM leukemia
[2] = system: SF-295 CNS
[3] = system: UACC-257 melanoma
[4] = system: SN12C renal
[5] = system: SF-539 CNS
[6] = system: RXF 393 renal
[7] = system: K-562 leukemia
[8] = system: TK-10 renal
[9] = system: HCT-116 colon
[10] = system: MDA-MB-435

Row | Structure (SMILES) | TGI [1] [µM] | TGI [2] [µM] | TGI [3] [µM] | TGI [4] [µM] | TGI [5] | TGI [6] [µM] | TGI [7] [µM] | TGI [8] [µM] | TGI [9] [µM] | TGI [10] [µM] | GI50 [1] | GI50 [2] | GI50 [3] [nM] | GI50 [10] [nM] | GI50 [5] | GI50 [7] | GI50 [8] | GI50 [9] [nM] | GI50 [6] [nM] | GI50 [4] [nM]
1 | O=C(Nc1ccccc1Br)c1cccc([N+](=O)[O-])c1O | > 40.3 | 25.2 | 10.1 | > 81.8 | 35 µM | 6.71 | > 100 | 12.6 | 14.8 |  |  |  |  |  |  |  |  |  |  | 
2 | Cc1ccccc1N=Nc1c(O)[nH]c2ccccc12 | > 100 | > 100 | > 100 | > 100 |  | > 100 | > 100 | > 100 | > 100 | > 100 |  |  |  |  |  |  |  |  |  | 
3 | COc1cccc(C2C3=C(COC3=O)N(CCO)c3cc4c(cc32)OCCO4)c1 (stereo unspecified) | > 50 |  | > 50 | > 50 |  |  | > 50 |  | 3.16 | 0.0767 | 151 nM | 38.9 nM | 46.7 | 17.9 | 124 nM | 82.7 nM | 891 nM | 152 |  | 
4 | C[C@H]1CC[C@@H]2[C@@H](C)[C@H]3[C@H](C[C@H]4[C@@H]5CC=C6C[C@@H](O)CC[C@]6(C)[C@H]5C[C@H](O)[C@]34C)N2C1 |  | > 100 | > 100 | > 100 | > 100 µM | > 100 | > 100 | > 100 | > 100 | > 100 |  |  |  |  |  |  |  |  |  | 
5 | N#CC(C#N)=CSc1ccccc1 | > 100 | > 100 | > 100 | 59.8 | 42.3 µM | 45.2 | > 100 | > 100 | 76.3 |  |  |  |  |  |  |  |  |  |  | 
6 | O=C(O)CCC1(Br)CCCCC(Br)C1=O (stereo unspecified) | > 100 | > 100 | > 100 | > 100 | > 100 µM | > 100 | > 100 | > 100 | > 100 |  |  |  |  |  |  |  |  |  |  | 
7 | O=C(O)C1c2ccccc2C(C(=O)O)c2ccccc21 (stereo unspecified) | > 100 | > 100 | > 100 | > 100 | > 100 µM | > 100 | > 100 | > 100 | > 100 |  |  |  |  |  |  |  |  |  |  | 
8 | O=C(O)C#CCO | > 100 | > 100 | > 100 | > 100 | > 100 µM | > 100 | > 100 | > 100 | > 100 |  |  |  |  |  |  |  |  |  |  | 
9 | CCc1c(Cl)nc(Cl)nc1Cl |  | 5.84 | 2.79 | 1.39 | 1.77 µM | 0.968 | > 32 | 4.77 | 0.44 | 12.1 |  |  |  |  |  |  |  |  |  | 
10 | O=c1c2ccccc2c(=O)c2c1cc(Cl)c1[nH]c3c([nH]c12)c(Cl)cc1c(=O)c2ccccc2c(=O)c13 | > 100 | > 100 | > 100 | > 100 | > 100 µM | > 100 | > 100 | > 100 | > 100 |  |  |  |  |  |  |  |  |  |  | 
11 | CNc1ccc(-c2cc(=O)oc3ccc(Cl)cc23)cc1 | > 100 | > 100 | > 100 | > 100 | 0.481 µM and 0.109 µM | > 100 | > 100 | > 100 | 5.23 |  | 146 nM and 49.4 nM | 47.9 nM and 32.2 nM | > 100000 |  | 52.7 nM and 25.5 nM | 31.2 nM and 36.3 nM | 702 nM and 210 nM | 44 | 91.2 | 
12 | COc1cc([C@@H]2c3cc4c(cc3[C@@H](O[C@@H]3O[C@@H]5CO[C@@H](c6cccs6)O[C@H]5[C@H](O)[C@H]3O)[C@H]3COC(=O)[C@H]23)OCO4)cc(OC)c1O | > 100 | 8.21 | 10.5 | 2.73 | 0.432 µM | 3.41 | > 100 |  | 4.81 | > 39.2 | 70.4 nM | 186 nM | 796 | 1150 | 97.2 nM | 411 nM |  | 344 | 409 | 166
13 | N#CCC(=O)N/N=C1\C(=O)N(c2ccc(Cl)cc2)C(=O)C(=O)C1c1nc2ccccc2o1 (stereo unspecified) | > 100 | > 100 | > 100 | > 100 | > 100 µM | > 100 |  | > 100 | > 100 |  |  |  |  |  |  |  |  |  |  | 
14 | Clc1ccc(OC2CCO2)cc1Cl (stereo unspecified) | > 100 | > 100 | > 100 | > 100 | > 100 µM |  | > 100 | > 100 | > 100 |  |  |  |  |  |  |  |  |  |  | 
15 | Nc1ccccc1NC(=O)c1ccc(CN2CCC/C(=C\c3cccc(Cl)c3)C2=O)cc1 | > 100 | 15.2 |  | 85.3 | 5.33 µM | 5.23 | > 100 | 5.88 | > 100 |  | 866 nM | 1050 nM |  |  | 695 nM | 39.9 nM | 1110 nM | 44.8 | 277 | 708
16 | C/C(=N/NC(=O)C(N)=O)C(CC(C(=O)Nc1ccccc1C)/C(C)=N\NC(=O)C(N)=O)C(=O)Nc1ccccc1C (stereo unspecified) | > 100 | > 100 | > 100 | > 100 | > 100 µM | > 100 | > 100 | > 100 |  |  |  |  |  |  |  |  |  |  |  | 
17 | COC(=O)C1CCC(Nc2cccc(C(F)(F)F)c2)=N1 (stereo unspecified) | > 100 | > 100 | > 100 | > 100 |  |  | > 100 | > 100 | > 100 |  |  |  |  |  |  |  |  |  |  | 
18 | Cc1cc(NS(=O)(=O)c2ccc(NC(=O)c3cccc4c(Nc5ccc(S(=O)(=O)Nc6cc(C)on6)cc5)c5ccccc5nc34)cc2)no1 | > 100 | > 100 | > 100 | > 100 | 62 µM | 61.5 | > 100 |  |  |  |  |  |  |  |  |  |  |  |  | 
19 | COC(=O)[C@H](CC(C)C)NC(=O)NC(=O)NC(=O)CI |  | 28.7 | 20.3 | 16.2 | 12.2 µM | 6.54 | 4.6 | 3.62 | 22.8 | 19.2 |  | 14700 nM | 7760 | 6100 | 3160 nM | 1910 nM | 1720 nM | 10000 | 2460 | 3610
20 | CC(=O)OC1C(CCl)OC(N=[N+]=[N-])C(OC(C)=O)C1OC(C)=O (stereo unspecified) | > 100 | > 100 | > 100 | > 100 | > 100 µM | > 100 | > 100 | > 100 | > 100 |  |  |  |  |  |  |  |  |  |  | 

From PubChem BioAssay (NCI)
